Reference: patent US20030162751A1, “Pharmaceutical composition comprising 5' monophosphate ester of riboflavin and solubilized riboflavin” (priority 2001, published 2003)
Converted amounts (≈) assume the structure as drawn. Like-named read-outs stand apart in the source and are kept apart here.

Columns and labels:
[1] = Solubilization of lumichrome in the FMN formulation; format: physicochemical; conditions: in the current FMN formulation
[2] = Solubility of riboflavin as a function of pH and % FMN; format: physicochemical
From the text: The intrinsic solubility of riboflavin is approximately 70 mcg/ml (see plot below with no FMN present). Precipitation is expected to occur if riboflavin reaches a level above this (due to riboflavin in drug substance or due to degradation to riboflavin with time), and precipitation would be unacceptable for patient safety with intravenous use.
Solubility of Riboflavin as a function of pH and % FMN [formula]
At 1% FMN, up to 365 mcg/ml of riboflavin can dissolve.

solubility ([2]; 1% FMN solution, aqueous with cosolvent or surfactant or cyclodextrin, read-out: riboflavin solubility (amount that can dissolve)) [µg/mL] | solubility ([2]; 5% FMN solution, aqueous with cosolvent or surfactant or cyclodextrin, 5% FMN, pH 7-8, read-out: riboflavin solubility (amount that can dissolve)) [µg/mL] | intrinsic (equilibrium) solubility of riboflavin ([2]; no FMN present) | solubility ([2]; no FMN present, read-out: intrinsic (equilibrium) solubility of riboflavin) [µg/mL] | Compound | solubility of lumichrome relative to equilibrium solubility [1]
– | – | – | – | Cc1cc2nc3[nH]c(=O)[nH]c(=O)c3nc2cc1C [lumichrome] | dissolve at levels above the equilibrium solubility
≤ 365 | ≤ 1320 | approximately 70 mcg/ml | ~70 (≈ 186 µM) | Cc1cc2nc3c(=O)[nH]c(=O)nc-3n(C[C@H](O)[C@H](O)[C@H](O)CO)c2cc1C [riboflavin] | –
